Assay: Trial 2 (France): blinded randomised field trial in weaned piglets, weight gain, feed intake and feed conversion ratio versus in-feed colistin
Type: in vivo
Description: Aim: The objective of this study was to compare the feed conversion ratios of piglets administered a single dose of my formulation with in feed colistin, an antibiotic.
Study Outline: This study was a blinded, controlled, randomised field trial comparing three parallel groups of piglets, (n=89 per group): 1. Colistin; 2. My formulation; and 3. No treatment. In this study, whole litters are randomised to receive different treatments, so litters are treated on a whole litter basis.
Weaning on this farm occurs in 2 stages. In stage 1, piglets are weaned by removing the sow (at day-5). Then on day 0, piglets are moved to their weaning pen.
At day-5, Group 1 piglets were administered colistin (9 kg antibiotic premix per Ton of feed) in pre-starter feed for 14 days (day-5 to day 9). The other two groups were administered pre-starter feed alone. On day 0 (5 days post weaning), when piglets are moved to their weaner pens, Group 2 piglets received a single dose of my formulation. Group 3 piglets were untreated.
Analysis: As Per Study 1.

[1] = pre-starter phase (d-5 to d9), 6 pens

colistin
Average Daily Weight gain (Post weaning): 377 ± 82 g
Average Daily Weight gain (Post weaning and fattening (overall)): 664 ± 67 g
Average Daily Weight gain (Pre-starter (d -5 to d 9)): 167 ± 67 g
Average Daily Weight gain (Starter): 505 ± 110 g
Feed Conversion Ratio, Arithmetic Mean [1]: 2.71
Feed Conversion Ratio, Median [1]: 2.59
Feed Conversion Ratio, Min-Max [1]: 1.75-3.42
Feed intake, Arithmetic Mean [1]: 417 g
Feed intake, Min-Max [1]: 358 to 479 g
